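96-well plates; 48 h exposure; 5 concentrations. Endpoints by linear interpolation between flanking doses. Not reached: highest tested concentration assigned. At the TGI there is no net growth.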 A value given as a limit tells only on which side of the number the result lay.

Test systems include IGROV1 ovarian; MDA-N; SK-MEL-2 melanoma; LOX IMVI melanoma; SK-OV-3 ovarian; UACC-62 melanoma; OVCAR-5 ovarian; HOP-62 NSCLC; A498 renal; HOP-92 NSCLC.
Common to all, as to assay: inhibition of tumour cell growth, NCI panel, 48 h

Regarding `CC(C)=CCC/C(C)=C/CCC1(C)C2COC(=O)C21` (stereo not drawn), the TGI in the experiment on IGROV1 ovarian was over 100 µM; in the experiment with MDA-N, over 100 µM; in the experiment on SK-MEL-2 melanoma, over 100 µM; in the experiment with LOX IMVI melanoma it was 89 µM; with SK-OV-3 ovarian, over 100 µM; in the experiment on UACC-62 melanoma, over 100 µM. In addition, the TGI in the experiment on OVCAR-5 ovarian was over 100 µM; in the experiment on HOP-62 NSCLC, over 100 µM; in the experiment on A498 renal, over 100 µM; in the experiment on HOP-92 NSCLC it was 87 µM.

In the case of `O=c1c2cc(Cl)ccc2n2nnc3ccc(NCCNCCO)c1c32`, the TGI with IGROV1 ovarian came to 6.26 µM; in the experiment on MDA-N it was 2.32 µM; in the experiment on SK-MEL-2 melanoma, 5.01 µM; in the experiment on LOX IMVI melanoma it was 1.96 µM; in the experiment with SK-OV-3 ovarian, 6.26 µM; in the experiment with UACC-62 melanoma it was 5.41 µM. Further, the TGI in the experiment with OVCAR-5 ovarian turned out to be 3.42 µM; with HOP-62 NSCLC, 3.03 µM; with A498 renal, 2.86 µM; in the experiment on HOP-92 NSCLC it was 6.1 µM.

`CCCCC[C@@H]1OC(=O)[C@@]2(CC3c4ccccc4C2c2ccccc23)[C@H]1C(=O)OC`: the TGI in the experiment on IGROV1 ovarian, with MDA-N, in the experiment on SK-MEL-2 melanoma, in the experiment on LOX IMVI melanoma, in the experiment with SK-OV-3 ovarian and in the experiment on UACC-62 melanoma was over 100 µM in each case. Moreover, the TGI was over 100 µM in the experiment on OVCAR-5 ovarian, over 100 µM with HOP-62 NSCLC, 82.5 µM in the experiment with A498 renal and over 100 µM in the experiment on HOP-92 NSCLC.

With `CCOC(=O)c1c(C)n(CCN2CCN(C)CC2)c2ccc(OC)cc12`, the TGI in the experiment on IGROV1 ovarian is over 100 µM; with MDA-N it was 39.4 µM; with SK-MEL-2 melanoma, 35.3 µM; with LOX IMVI melanoma, 35.1 µM; with SK-OV-3 ovarian it was over 100 µM; with UACC-62 melanoma, 30.7 µM. Further, the TGI is over 100 µM with OVCAR-5 ovarian, over 100 µM with HOP-62 NSCLC, 73.8 µM with A498 renal and 80.5 µM in the experiment on HOP-92 NSCLC.

Take `COc1cc(/C=C2\N=C(c3ccccc3)N(c3ccc(C(=O)c4ccccc4)cc3N3C(=O)/C(=C/c4cc(OC)c(OC)c(OC)c4)N=C3c3ccccc3)C2=O)cc(OC)c1OC`: the TGI with IGROV1 ovarian was over 100 µM; with MDA-N it was 14.9 µM; with SK-MEL-2 melanoma it was 25.1 µM; in the experiment with LOX IMVI melanoma, 39.2 µM; in the experiment on SK-OV-3 ovarian, 55.4 µM; with UACC-62 melanoma it was 24.7 µM. Further, the TGI in the experiment with OVCAR-5 ovarian was over 100 µM; with HOP-62 NSCLC, over 100 µM; in the experiment with A498 renal it was 43 µM; in the experiment with HOP-92 NSCLC it was over 100 µM.

As for `C=C1C(=O)O[C@H]2[C@@H](O)[C@H](C)CCC/C(C)=C/CC[C@@]3(C)O[C@@H]3C[C@@H]12`, the TGI with IGROV1 ovarian amounted to 15.6 µM; in the experiment on MDA-N, 25.6 µM; in the experiment on SK-MEL-2 melanoma, 48.9 µM; in the experiment on LOX IMVI melanoma, 19.3 µM; in the experiment on SK-OV-3 ovarian, 34.2 µM; in the experiment with UACC-62 melanoma, 22.6 µM. Further, the TGI in the experiment on OVCAR-5 ovarian is 34.8 µM; in the experiment on HOP-62 NSCLC it was 56.3 µM; with A498 renal, 25.3 µM; in the experiment on HOP-92 NSCLC, 8.04 µM.

`CCOc1cc(C=Nc2ccc(Oc3ccc(Cl)cc3)c(Cl)c2)ccc1O`: the TGI with IGROV1 ovarian amounted to 60.6 µM; with MDA-N it was 61.7 µM; with SK-MEL-2 melanoma, 56.4 µM; in the experiment on LOX IMVI melanoma, 39.9 µM; in the experiment with SK-OV-3 ovarian, 58.3 µM; in the experiment with UACC-62 melanoma, 50.9 µM. Moreover, the TGI in the experiment with OVCAR-5 ovarian worked out at 79.7 µM; in the experiment on HOP-62 NSCLC it was 45.6 µM; in the experiment with A498 renal, 36.6 µM; in the experiment on HOP-92 NSCLC it was 39.6 µM.

For the compound `NC(Cc1ccccc1)C(=O)O` (stereo not drawn), the TGI in the experiment on IGROV1 ovarian, with MDA-N, in the experiment with SK-MEL-2 melanoma, in the experiment on LOX IMVI melanoma, in the experiment on SK-OV-3 ovarian and in the experiment with UACC-62 melanoma was over 100 µM in each case. The TGI in the experiment on OVCAR-5 ovarian, in the experiment on HOP-62 NSCLC, with A498 renal and in the experiment with HOP-92 NSCLC was over 100 µM each time.

`C[C@@H](CC(O)C(O)C(C)(C)O)C1CCC23CC12CCC1[C@@]2(C)CCC(=O)C(C)(C)C2CC(OC2OC(CO)C(O)C(O)C2O)[C@]13C` (stereo partly drawn): the TGI with IGROV1 ovarian, in the experiment on MDA-N, in the experiment with SK-MEL-2 melanoma, in the experiment with LOX IMVI melanoma, with SK-OV-3 ovarian and in the experiment on UACC-62 melanoma was over 10 µM throughout. For the same compound, the TGI with OVCAR-5 ovarian, in the experiment with HOP-62 NSCLC, in the experiment with A498 renal and in the experiment on HOP-92 NSCLC was over 10 µM each time.

Consider `Cn1c(=O)n2n(c1=O)C1C(=CC2)C2C=CC1n1c(=O)n(C)c(=O)n12` (stereo not drawn), for which the TGI in the experiment on IGROV1 ovarian, in the experiment on MDA-N, in the experiment on SK-MEL-2 melanoma, in the experiment on LOX IMVI melanoma, in the experiment with SK-OV-3 ovarian and with UACC-62 melanoma was over 100 µM throughout. Moreover, the TGI with OVCAR-5 ovarian, in the experiment with HOP-62 NSCLC, in the experiment with A498 renal and in the experiment on HOP-92 NSCLC was over 100 µM in each case.

On to `C=C(Cl)C(=C)CCC(Cl)C(C)(C)Cl` (stereo not drawn), for which the TGI in the experiment with IGROV1 ovarian, in the experiment on MDA-N, in the experiment on SK-MEL-2 melanoma, with LOX IMVI melanoma, in the experiment with SK-OV-3 ovarian and in the experiment on UACC-62 melanoma was over 100 µM each time. Moreover, the TGI in the experiment with OVCAR-5 ovarian, in the experiment on HOP-62 NSCLC, in the experiment with A498 renal and with HOP-92 NSCLC was over 100 µM throughout.

In the case of `O=[N+]([O-])c1ccc(-c2nc3ccccc3o2)cc1`, the TGI in the experiment on IGROV1 ovarian, in the experiment on MDA-N, with SK-MEL-2 melanoma, in the experiment on LOX IMVI melanoma, in the experiment with SK-OV-3 ovarian and in the experiment on UACC-62 melanoma was over 100 µM in each case. Further, the TGI with OVCAR-5 ovarian, in the experiment with HOP-62 NSCLC, in the experiment on A498 renal and in the experiment on HOP-92 NSCLC was over 100 µM throughout.

For the compound `CC(C)(CN1CCCCC1)C(=O)CC(SCCS(=O)(=O)O)c1ccc(Cl)c(Cl)c1` (stereo not drawn), the TGI is 13.5 µM in the experiment on IGROV1 ovarian; 8.4 µM in the experiment on MDA-N; 57.3 µM in the experiment with SK-MEL-2 melanoma; 45 µM in the experiment on SK-OV-3 ovarian; 10.1 µM with UACC-62 melanoma; 14.6 µM in the experiment with OVCAR-5 ovarian. Moreover, the TGI with HOP-62 NSCLC was 18.7 µM; in the experiment on A498 renal it was 12.9 µM; in the experiment on HOP-92 NSCLC, 6.18 µM.

Consider `CCOC(=O)Cn1c(C)nc2nn(Cc3ccccc3)cc2c1=O`, for which the TGI with IGROV1 ovarian, in the experiment with MDA-N, with SK-MEL-2 melanoma, with SK-OV-3 ovarian, in the experiment with UACC-62 melanoma and in the experiment on OVCAR-5 ovarian was over 100 µM each time. Moreover, the TGI in the experiment on HOP-62 NSCLC, with A498 renal and with HOP-92 NSCLC was over 100 µM throughout.

For the origin of these results see PubChem BioAssay (NCI).
